Results as given in the NIST ThermoML archive (doi:10.1016/j.tca.2004.08.013).

Assay: xn = mol fraction of the nth substance listed
Conditions: 101.3 kPa, Liquid

CCCCN [1-butanamine] + ClC(Cl)(Cl)Cl
Conditions | mass density, 303.15 K [kg/m3] | mass density, 313.15 K [kg/m3] | viscosity, 303.15 K [mPa·s] | viscosity, 313.15 K [mPa·s]
x1 = 0.0099 | 1566.74 | 1547.13 | 0.855 | 0.763
x1 = 0.0183 | 1559.88 | 1540.41 | 0.858 | 0.765
x1 = 0.0287 | 1551.36 | 1532.01 | 0.861 | 0.768
x1 = 0.0386 | 1543.06 | 1523.9 | 0.862 | 0.77
x1 = 0.0477 | 1535.31 | 1516.18 | 0.862 | 0.773
x1 = 0.0581 | 1526.57 | 1507.58 | 0.864 | 0.776
x1 = 0.0675 | 1518.67 | 1499.84 | 0.866 | 0.78
x1 = 0.076 | 1511.52 | 1492.72 | 0.869 | 0.784
x1 = 0.0856 | 1503.49 | 1484.69 | 0.871 | 0.786

CCCCN [1-butanamine] + ClC(Cl)Cl
Conditions | mass density, 303.15 K [kg/m3] | mass density, 313.15 K [kg/m3] | viscosity, 303.15 K [mPa·s] | viscosity, 313.15 K [mPa·s]
x1 = 0.0091 | 1462.78 | 1440.74 | 0.528 | 0.478
x1 = 0.0196 | 1453.53 | 1431.89 | 0.536 | 0.485
x1 = 0.0289 | 1445.49 | 1423.81 | 0.544 | 0.493
x1 = 0.0409 | 1435.01 | 1413.72 | 0.55 | 0.499
x1 = 0.0483 | 1428.52 | 1407.41 | 0.556 | 0.505
x1 = 0.0578 | 1420.29 | 1399.24 | 0.562 | 0.511
x1 = 0.0676 | 1411.7 | 1390.72 | 0.566 | 0.517
x1 = 0.0775 | 1403.16 | 1382.3 | 0.569 | 0.521
x1 = 0.0848 | – | – | 0.573 | 0.525

CCCCNCCCC [dibutylamine] + ClC(Cl)(Cl)Cl
Conditions | mass density, 303.15 K [kg/m3] | mass density, 313.15 K [kg/m3] | viscosity, 303.15 K [mPa·s] | viscosity, 313.15 K [mPa·s]
x1 = 0.0105 | 1560.01 | 1540.58 | 0.852 | 0.761
x1 = 0.0201 | 1546.59 | 1527.31 | 0.851 | 0.76
x1 = 0.0298 | 1533.23 | 1514.26 | 0.85 | 0.761
x1 = 0.0396 | 1519.86 | 1501.14 | 0.85 | 0.76
x1 = 0.049 | 1507.12 | 1488.59 | 0.849 | 0.759
x1 = 0.0583 | 1494.77 | 1476.4 | 0.847 | 0.757
x1 = 0.0696 | 1480 | 1461.9 | 0.846 | 0.755
x1 = 0.0789 | 1467.95 | 1450.12 | 0.845 | 0.754
x1 = 0.089 | 1455.15 | 1437.55 | 0.845 | 0.752
